# Assay results taken from patent publication US20050181066A1, “Novel use of guanylate cyclase activators for the treatment of respiratory insufficiency” (Altana Pharma AG, priority 2002, published 2005).
# Entries after “also recorded” stand apart in the source; their conditions may differ.
# Legend:
# isolated rabbit lung = experiment: Isolated, bloodlessly perfused and ventilated rabbit lung with U46619-induced acute pulmonary hypertension; settings: for effect on pulmonary arterial pressure (FIG. 1): U46619-induced pulmonary hypertension, NO 10, 50, 100, 200 ppm cumulatively by inhalation, YC-1 0.1 μM, enhancement at 50, 100, 200 ppm NO, n=6
# Method: Model of the Isolated, Bloodlessly Perfused and Ventilated Rabbit Lung
# The test animal was anaesthetized by injection of about 700 μl of a mixture of Ketanest and Rompun in the ratio 3:2. The spontaneous breathing of the animal was maintained with this initial anaesthesia. 1 000 I.U. of heparin per kg of bodyweight were injected through the venous access for anticoagulation. For the intubation, 7 ml of Xylocaine were injected into the subcutaneous tissue of the animal's neck. A tube was introduced into the trachea underneath the larynx and was used from this instant onwards to ventilate the animal with ambient air through the ventilating pump (breathing rate: […], tidal volume 30 ml). About 3 ml of the anaesthetic mixture were administered over a period of 15 min. The lungs were then removed by a standard technique; likewise dissection of the pulmonary artery and the ascending aorta.
# To make it possible to remove the lung from the body's own perfusion without interruption, the pulmonary artery catheter of the perfusion system was, after incision of the right ventricle, advanced into the pulmonary artery and fixed there by means of the open ligature. After cutting off the apex of the heart and closing the ascending aorta, the lung was artificially perfused with Krebs-Henseleit buffer cooled to 4° C. (the cooling served to reduce metabolism) at 20 ml/min. The ambient air was replaced by a 5% CO2, 15% O2 and 80% N2 gas mixture.
# The lung was dissected out of the thorax, and a connector was sutured into the left heart to allow the perfusion circulation to be completed. The lung was suspended on a weighing cell and the perfusion circulation was completed through the connector. The lung perfusate then flowed out through a pressure cascade. The temperature of the complete system was raised to 38° C. and the pressure recording started. In the system, the pulmonary artery pressure, the left ventricular pressure, the ventilation pressure and the weight were recorded continuously. […]
# [1] = test system: anaesthetized and ventilated rabbit with oleic acid-induced lung damage; experiment: Whole animal model of acute pulmonary hypertension with severe gas exchange impairment through oleic acid (MIGET, haemodynamics); format: in vivo; settings: for effect on pulmonary arterial pressure (FIG. 2) / effect on systemic arterial pressure (FIG. 3): NO 10, 34, 70, 120, 200 ppm by inhalation, YC-1 5 mg infusion over 10 min; for effect on pulmonary arterial pressure (FIG. 2) / effect on systemic arterial pressure (FIG. 3) / effect on arterial oxygenation / oxygenation index (FIG. 6) / effect on intrapulmonary shunting (MIGET, FIG. 5) / effect on perfusion of normally ventilated areas of the lung (normal V/Q, MIGET, FIG. 7) / effect on pulmonary arterial pressure (FIG. 4): n=6; for effect on arterial oxygenation / oxygenation index (FIG. 6): 150 min after oleic acid injection; for intrapulmonary shunting (MIGET): oleic acid (OA) group 33±2 %; for arterial oxygenation: oleic acid (OA) group 123±13 mmHg; for effect on intrapulmonary shunting (MIGET, FIG. 5) / effect on perfusion of normally ventilated areas of the lung (normal V/Q, MIGET, FIG. 7) / effect on pulmonary arterial pressure (FIG. 4): YC-1 5 mg infusion 30-40 min after oleic acid
# Method: Whole Animal Model of Acute Pulmonary Hypertension with Severe Gas Exchange Impairment Through Infusion of Oleic Acid
# The test animals In the rabbit model were anaesthetized by injection of about 700 μl of a mixture of Ketanest and Rompun in the ratio 3:2. The spontaneous breathing of the animal was maintained with this initial anaesthesia. 1 000 I.U. of heparin per kg of bodyweight were injected for anticoagulation. For the intubation, 7 ml of Xylocaine were injected into the subcutaneous tissue of the animal's neck. A tube was introduced into the trachea underneath the larynx and was used from this instant onwards for ventilation of the animal through the ventilation pump (breathing rate: […], tidal volume 35 ml). The animal underwent standard ventilation with a 50% N2 and a 50% O2 gas mixture. 7 ml/h of the anaesthetic mixture were administered through a Perfusor, which led to a deep analgesia and relaxation of the animal. The left common carotid artery was ligated and punctured for measurement of the arterial pressure. […] Through this port, a 4F balloon catheter was placed in the right ventricle and the right ventricular pressure was recorded. The gas exchange was analysed by the multiple inert gas elimination technique (MIGET). The MIGET is based on elimination and retention of a plurality of inert gases. Central venous infusion thereof in dissolved form into the animal via the ear margin vein was therefore necessary. This infusion solution was prepared by introducing 250 ml of the perfusate without air bubbles into a gas-tight bag. 0.5 ml of liquid halothane was put into this bag through an injection plug. The bag was then filled with a test gas mixture (10% SF6 3.0, 20% cyclopropane 2.0 and 70% ethane 2.5) and the gases were dissolved in the perfusate. 0.15 ml of diethyl ether was injected, followed by 0.7 ml of acetone. This solution was infused continuously at 30 ml/h into the animal during the equilibration period after change of the perfusate. An equilibrium between retention and elimination of the gases was set up within a period of 30-40 min. After this time, 2.5 ml samples were taken simultaneously from the arterial and venous blood by gas-tight 50 ml glass syringes (B-D Yale, Becton, Dickinson & Co, USA). The arterial and the venous sample was then weighed, blanketed with 15 ml of nitrogen gas (ECD grade) and incubated at 38° C. in a shaking water bath (135 min^−1). During this time, an equilibrium, depending on the solubility of the gas, was set up between the gaseous and liquid phase. After the equilibration time had elapsed, the total volume of the syringe was determined and the supernatant gas was transferred into an air-tight 30 ml glass syringe (B-D Yale, Becton, Dickinson & Co, USA) preheated to 38° C. The latter was stored at 38° C. and used for gas chromatographic analysis. Immediately after removal of the arterial and venous perfusate, a sample of the expired air from the isolated lung was taken by a preheated 30 ml glass syringe on an expiratory gas mixing box. This gaseous sample was analysed immediately in a gas chromatograph. The gases were analysed by a computer-assisted calculation through which essentially the following parameters were calculated: shunting (perfusion, unventilated regions of the lung), normal V/Q (perfusion in normally ventilated regions of the lung).
# Besides the MIGET data, the following haemodynamic parameters were determined: • pulmonary arterial pressure • systemic arterial pressure • arterial oxygen partial pressure (pO2)
# Catheterization of the animal was followed by injection of 50 μg of oleic acid (OA) into the pulmonary artery. The pulmonary arterial pressure rose after this injection from 11-13 mmHg to a stable plateau of 17-18 mmHg. This rise in the pulmonary arterial pressure was accompanied by severe gas exchange impairment essentially characterized by a fall in the arterial oxygenation and a rise in the shunt perfusion (measured by the MIGET). […]
# [2] = test system: ventilated patients suffering from acute adult respiratory distress syndrome (ARDS); settings: inhaled; cited from earlier work
# [3] = test system: patients with post-traumatic pulmonary dysfunction; settings: infusion; 11 patients; cited from earlier work
# [4] = test system: rabbit model of acute pulmonary hypertension; settings: cited from earlier work; for effect on pulmonary hypertension / pulmonary and systemic vasodilatation: systemic (intravenous) administration, in the combination a dose of dipyridamole with no activity per se
# [5] = test system: patients with bronchial asthma; settings: intravenous administration; cited from earlier work
# [6] = NO 100 ppm inhaled 30-150 min, YC-1 5 mg infusion 30-40 min
compound,measurement,setting,value
"[N]=O [NO, nitric oxide]",effect on pulmonary arterial pressure (FIG. 1),isolated rabbit lung,dose-dependent reduction in the pulmonary arterial pressure
same,effect on pulmonary arterial pressure (FIG. 2),[1]; 50 μg oleic acid,dose-dependent reduction in the pulmonary arterial pressure
same,effect on systemic arterial pressure (FIG. 3),[1]; 50 μg oleic acid,remained unchanged; also recorded: did not lead to a dose-dependent reduction in the systemic arterial pressure
same,effect on arterial oxygenation / oxygenation index (FIG. 6),[1]; [6],significant increase in the arterial oxygenation
same,pulmonary arterial pressure,"[1]; NO 100 ppm inhaled 30-150 min, YC-1 5 mg infusion 30-40 min, oleic acid (OA) group 17.8±1.6 mmHg",14.5±1.8 mmHg
same,intrapulmonary shunting (MIGET),[1]; [6],23±3%
same,arterial oxygenation,[1]; [6],234±21 mmHg
same,"effect on intrapulmonary shunting (MIGET, FIG. 5)",[1]; NO 100 ppm inhaled 30-150 min,reduction in the intrapulmonary shunting
same,"effect on perfusion of normally ventilated areas of the lung (normal V/Q, MIGET, FIG. 7)",[1]; NO 100 ppm inhaled 30-150 min,significant increase in the perfusion of normally ventilated areas of the lung
same,effect on pulmonary arterial pressure (FIG. 4),[1]; NO 100 ppm inhaled 30-150 min,reduction in the pulmonary arterial pressure
same,effect on gas exchange,[2],improvement in gas exchange
"O=[N+]([O-])OCC(CO[N+](=O)[O-])O[N+](=O)[O-] [Ng, 1,2,3-propanetriyl trinitrate]",effect on acute pulmonary hypertension,[3],reduction in the acute pulmonary hypertension
same,effect on arterial oxygen content,[3],deterioration in the arterial oxygen content
CCCCC[C@H](O)/C=C/[C@@H]1[C@@H](C/C=C\CCCC(=O)O)[C@H]2CO[C@@H]1C2 [U46619],pulmonary arterial pressure raised by U46619,"isolated rabbit lung; continuous intravascular 70 to 160 pmol/kg min U46619, raised from 6-8 mmHg",33-35 mmHg
"OCc1ccc(-c2nn(Cc3ccccc3)c3ccccc23)o1 [YC-1, 3-(5′-Hydroxymethyl-2′-furyl)-1-benzyl indazole]",effect on pulmonary arterial pressure (FIG. 1),isolated rabbit lung,no intrinsic effect on the pulmonary arterial pressure
same,effect on pulmonary arterial pressure (FIG. 2),[1]; 50 μg oleic acid,no effect on the measured parameters
same,effect on systemic arterial pressure (FIG. 3),[1]; 50 μg oleic acid,no effect on the measured parameters
same,effect on arterial oxygenation / oxygenation index (FIG. 6),[1]; [6],significant effect on the oxygenation index
same,intrapulmonary shunting (MIGET),[1]; [6],21±4%
same,arterial oxygenation,[1]; [6],215±8 mmHg
same,"effect on intrapulmonary shunting (MIGET, FIG. 5)",[1]; NO 100 ppm inhaled 30-150 min,no significant effect on intrapulmonary shunting
same,"effect on perfusion of normally ventilated areas of the lung (normal V/Q, MIGET, FIG. 7)",[1]; NO 100 ppm inhaled 30-150 min,no significant effect on the perfusion of normally ventilated areas of the lung
same,effect on pulmonary arterial pressure (FIG. 4),[1]; NO 100 ppm inhaled 30-150 min,no effect on the pulmonary arterial pressure
OCCN(CCO)c1nc(N2CCCCC2)c2nc(N(CCO)CCO)nc(N3CCCCC3)c2n1 [dipyridamole],effect on pulmonary hypertension / pulmonary and systemic vasodilatation,[4],dose-dependent reduction in the pulmonary and systemic vasodilatation
CCCCCCCC/C=C\CCCCCCCC(=O)O [oleic acid],intrapulmonary shunting after oleic acid injection,[1]; 50 μg oleic acid,30-35%
same,pulmonary arterial pressure plateau after oleic acid injection,"[1]; 50 μg oleic acid into the pulmonary artery, rise from 11-13 mmHg",17-18 mmHg
urodilatin,effect on pressure in the systemic circulation,[4]; intravenous administration,reduces the pressure in the systemic circulation to the same extent
same,effect on pulmonary hypertension / pulmonary and systemic vasodilatation,[4],dose-dependent reduction in the pulmonary and systemic vasodilatation; also recorded: marked reduction in pulmonary hypertension
same,effect on ventilatory parameters,[5],improvement in the ventilatory parameters
